Assay results as given in US7138408B2, “HIV integrase inhibitors, pharmaceutical compositions and methods for their use” (priority 2003, dated 2006).

The compounds below were run against T1, HIV-1 integrase (SF1) (Human immunodeficiency virus type 1 group M subtype B, UniProt P04585, C1203S/C1427S/F1286D/F1332K/W1278D) (assay: Integrase strand-transfer scintillation proximity assay).
T1 construct: 6-histidine tag with thrombin cleavage site (N, cleaved yes); made in house; host or cells: E. coli BL21 (DE3)
Type: biochemical
Excerpt: Oligonucleotides: Oligonucleotide #1-5′-(biotin)[…]-3′ (SEQ ID NO: 1) and oligonucleotide #2-5′-[…]-3′ (SEQ ID NO: 2), were synthesized by TriLink BioTechnologies, Inc. (San Diego, Calif.). The annealed product represents preprocessed viral ds-DNA derived from the LTR U5 sequence of the viral genome. A ds-DNA control to test for non-specific interactions was made using a 3′ di-deoxy derivative of oligonucleotide #1 annealed to oligonucleotide #2. The CA overhang at the 5′ end of the non-biotinylated strand of the ds-DNA was created artificially by using a complimentary DNA oligonucleotide shortened by 2 base pairs. This configuration eliminates the requisite 3′ processing step of the integrase enzyme prior to the strand-transfer mechanism.
Host ds-DNA was prepared as an unlabeled and [^3H]-thymidine labeled product from annealed oligonucleotide #3-5-[…]-3′ (SEQ ID NO: 3), and oligonucleotide #4-5′-[…]-3′ (SEQ ID NO: 4), both synthesized by TriLink BioTechnologies, Inc. (San Diego, Calif.). The annealed product had overhanging 3′ ends of poly(dA). Host DNA was custom radiolabeled by PerkinElmer Life Sciences Inc. (Boston, Mass.) using an enzymatic method with a 12/1 ratio of [methyl-^3H]dTTP/cold ds-DNA to yield 5′-blunt end ds-DNA with a specific activity of>900 Ci/mmol. The radiolabeled product was purified using a NENSORB cartridge and stored in stabilized aqueous solution (PerkinElmer). The final radiolabeled product had six [^3H]-thymidine nucleotides at both 5′ ends of the host ds-DNA.
Reagents: Streptavidin-coated polyvinyltoluene (PVT) SPA beads were purchased from Amersham Pharmacia (Piscataway, N.J.). Cesium chloride was purchased from Shelton Scientific, Inc. (Shelton, Conn.). White polystyrene, flat bottom, non-binding surface 384-well plates were purchased from Corning. All other buffer components were purchased from Sigma (St. Louis, Mo.) unless otherwise indicated.
Enzyme Construction: Full-length HIV-1 integrase (SF1) sequence (amino acids 1–288) (SEQ ID NO: 5) was constructed in a pET 15b vector (Novagen, Madison, Wis.) with mutations outlined by Chen et al. (Chen, C-H. J. et al., PNAS 97: 8233–8238 (2000)) that facilitate solubility of the enzyme and decrease oxidation. The vector contained a T7 promoter, a 6-histidine tag at the amino terminus, and a thrombin cleavage site. Mutations C56S, W131D, F139D, F185K, and C280S were introduced using a QuickChange kit (Stratagene, San Diego, Calif.). The construct was confirmed through DNA sequencing.
Enzyme Purification: The penta-mutant was expressed in E. coli BL21 (DE3) cells and induced with 1 mM isopropyl-1 thio-β-D-galactopyranoside (IPTG) when cells reached an optical density between 0.8–1.0 at 600 nm. Cells were lysed in 20 mM HEPES (pH 7.5), 1.5 M NaCl, 5 mM imidazole, and 2 mM 2-mercaptoethanol. The enzyme was purified following standard methods for histidine tagged proteins (Jenkins, T. M. et al., Journal of Biological Chemistry 271: 7712–7718 (1996)). Specifically, cell lysate was passed over a Ni-Nta column (Qiagen, Chatsworth, Calif.) with the 6-His tagged integrase protein eluted by adding 250 mM imidazole. A G-25 Sepharose® column (Amersham Pharmacia, Piscataway, N.J.) was used to exchange the buffer prior to thrombin cleavage of the integrase protein and subsequent removal of thrombin using a benzamidine-Sepharose® 6B column. The cleaved 6-His tag was separated from the integrase using a second Ni-Nta column. The integrase was further purified with a heparin-Sepharose® column and a gradient of NaCl (0.4 to 1 M) in 20 mM HEPES (pH 7.5), 400 mM NaCl, and 1 mM DTT buffer. The purified protein was dialyzed against 20 mM HEPES (pH 7.5), 800 mM NaCl, and 1 mM DTT and concentrated by stirred cell ultrafiltration (Millipore, Bedford, Mass.) or Ultra-free spin concentrators (Millipore, Bedford, Mass.) when required. […]
In the case of `O=C(NO)c1cc2c3ccccc3n(Cc3ccc(F)cc3)c2cn1` [Compound 1, 9-(4-Fluorobenzyl)-N-hydroxy-9H-β-carboline-3-carboxamide], the IC50 is reported as 234 nM.
Work on `O=C(NO)c1cc2c3ccccc3n(Cc3ccc(Cl)s3)c2cn1` [Compound 2, 9-[(5-Chlorothien-2-yl)methyl]-N-hydroxy-9H-β-carboline-3-carboxamide] yielded an IC50 of 494 nM.
For `O=C(NO)c1cc2c3ccccc3n(Cc3cccc(Cl)c3F)c2cn1` [Compound 3, 9-(3-Chloro-2-fluorobenzyl)-N-hydroxy-9H-β-carboline-3-carboxamide], the IC50 was 400 nM.
In the case of `O=C(NO)c1cc2c3ccccc3n(Cc3ccccc3)c2cn1` [Compound 4, 9-Benzyl-N-hydroxy-9H-β-carboline-3-carboxamide], the IC50 is reported as 281 nM.
Work on `O=C(NO)c1cc2c3ccccc3n(Cc3ccc(F)cc3F)c2cn1` [Compound 6, 9-(2,4-Difluorobenzyl)-N-hydroxy-9H-β-carboline-3-carboxamide] yielded an IC50 of 463 nM.
With `O=C(NO)c1cc2c3ccccc3n(Cc3c(F)ccc(Cl)c3F)c2cn1` [Compound 7, 9-(3-Chloro-2,6-difluorobenzyl)-N-hydroxy-9H-β-carboline-3-carboxamide] the IC50 was 1390 nM.
In the case of `Nc1ccc2c(c1)c1cc(C(=O)NO)ncc1n2Cc1cccc(Cl)c1` [Compound 8, 6-Amino-9-(3-chlorobenzyl)-N-hydroxy-9H-β-carboline-3-carboxamide], the IC50 is reported as 713 nM.
`CN(O)C(=O)c1cc2c3ccccc3n(Cc3ccc(F)cc3)c2cn1` [Compound 13, 9-(4-Fluorobenzyl)-N-hydroxy-N-methyl-9H-β-carboline-3-carboxamide] showed an IC50 of 699 nM.
